Measured values from paper PMC7894523 (Chemistry (Weinheim an Der Bergstrasse, Germany), 2020).

Target: T1, 15N-labeled carbohydrate recognition domain (CRD) of DC-SIGN (Homo sapiens, UniProt Q9NNX6)
T1 sequence (Q9NNX6 250-404 limits assumed): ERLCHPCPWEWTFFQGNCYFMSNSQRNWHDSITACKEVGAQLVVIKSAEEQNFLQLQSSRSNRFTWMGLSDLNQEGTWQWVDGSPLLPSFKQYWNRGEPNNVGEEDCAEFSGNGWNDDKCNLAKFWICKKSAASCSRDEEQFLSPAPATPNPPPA
Experiment: 1H-15N HSQC titration, chemical shift perturbation
Assay type: binding

`CC(=O)N[C@H]1[C@H](O[C@H]2[C@H](O[C@@H]3O[C@@H](C)[C@@H](O)[C@@H](O)[C@@H]3O)[C@@H](NC(C)=O)[C@H](OCCCCCN)O[C@@H]2CO)O[C@H](CO)[C@H](O)[C@@H]1O` [compound 12, LDN-F] gave a Kd of 1.5 ± 0.4 mM.
